Test results as given in ChEMBL document CHEMBL3044777, “Weed control and sweet maize (Zea mays L.) yield as affected by pyroxasulfone dose” (2011).

Assays:
Format in all cases: functional
[1] = system: Digitaria; experiment: Herbicide activity against Digitaria assessed as weed control at 274 g/ha in presence of 2% organic matter on soil
[2] = system: Digitaria sanguinalis; experiment: Herbicide activity against Digitaria sanguinalis assessed as weed control at 31.25 g/ha
[3] = system: Abutilon theophrasti; experiment: Herbicide activity against Abutilon theophrasti (velvetleaf) assessed as weed control at 31.25 g/ha
[4] = system: Echinochloa crus-galli; experiment: Herbicide activity against Echinochloa crus-galli (barnyard grass) assessed as weed control at 31.25 g/ha
[5] = system: Amaranthus palmeri; experiment: Herbicide activity against Amaranthus […] (Moq.) Sauer. assessed as weed control at 152 g/ha
[6] = system: Amaranthus palmeri; experiment: Herbicide activity against Amaranthus palmeri S.Watson assessed as weed control at 125 g/ha
[7] = system: Amaranthus; experiment: Herbicide activity against Amaranthus sp. assessed as weed control at 1000 g/ha
[8] = system: Setaria viridis; experiment: Herbicide activity against Setaria viridis (green foxtail) assessed as weed control measured after pre-emergence treatment in southwestern ontario
[9] = system: Chenopodium album; experiment: Herbicide activity against Chenopodium album assessed as weed control measured after pre-emergence treatment in southwestern ontario
[10] = system: Amaranthus retroflexus; experiment: Herbicide activity against Amaranthus retroflexus assessed as weed control measured after pre-emergence treatment in southwestern ontario

Cn1nc(C(F)(F)F)c(CS(=O)(=O)C2=NOC(C)(C)C2)c1OC(F)F [PYROXASULFONE]
Activity [1]: 90%
Activity [2]: 90%
Activity [3]: 90%
Activity [4]: 90%
Activity [5]: 90%
Activity [6]: 95%
Activity [7]: 90%
I90 [8]: 111 g/ha
I90 [9]: 499 g/ha
I90 [10]: 93 g/ha
